Read-outs that look alike come from different tables or passages of the source.
Columns and labels:
Format in all cases: in vivo
[1] = tested on: Beet Armyworm (Spodoptera exigua, LAPHEG); assay: Bioassay on Beet Armyworm (BAW), 128-well diet tray assay
Procedure, shortened: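 Second-instar larvae, one to five per well, placed on artificial diet surface-treated with 50 μg/cm^2 compound applied in 90:10 acetone-water and dried. Held 5–7 days at 25° C., 14:10 light-dark. Percent mortality recorded per well and averaged over eight wells.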

[2] = tested on: Cabbage Looper (Trichoplusia ni, TRIPNI); assay: Bioassay on Cabbage Looper (CL), 128-well diet tray assay; settings: Trichoplusia ni
Procedure, shortened: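 Second-instar larvae, one to five per well, were placed on artificial diet surface-treated with 50 μg/cm^2 test molecule applied in 90:10 acetone-water and dried, eight wells per molecule. Trays were covered, vented and held at 25° C., 14:10 light-dark for five to seven days; percent mortality per well was averaged.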

[3] = tested on: Yellow Fever Mosquito (Aedes aegypti, AEDSAE); assay: Bioassay on Yellow Fever Mosquito (YFM), 96-well plate larval assay; settings: for YFM (Biological Results, rating): Species YFM (Yellow Fever Mosquito); for YFM rating: Yellow Fever Mosquito, 96-well plate larval assay
Procedure, shortened: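 Aedes aegypti larvae (about 1 day old) in liver-powder water were added to plates dispensed from DMSO master plates (4000 ppm stock) diluted with 90:10 water/acetone; six replicate plates per master. Lidded plates were held at room temperature for 3 days, then each well was scored for mortality.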

[4] = Species BAW (Beet Armyworm), read-out: BAW (Biological Results, rating)
[5] = Species CL (Cabbage Looper), read-out: CL (Biological Results, rating)
[6] = Beet Armyworm, 128-well diet tray assay, read-out: BAW rating
[7] = Cabbage Looper, 128-well diet tray assay, read-out: CL rating

Row | SMILES | pest or weed control at 50 µg/cm2 [1, 4] [%] | pest or weed control at 50 µg/cm2 [2, 5] [%] | YFM (Biological Results, rating) [3] | pest or weed control at 50 µg/cm2 [1, 6] [%] | pest or weed control at 50 µg/cm2 [2, 7] [%] | YFM rating [3]
1 | O=C(Nc1ccc(Br)c(F)n1)c1cc(NC(=O)[C@H]2[C@H](c3cc(Cl)cc(Cl)c3)C2(Cl)Cl)ccc1Cl (relative stereo) [F357, N-(5-Bromo-6-fluoropyridin-2-yl)-2-chloro-5-(trans-2,2-dichloro-3-(3,5-dichlorophenyl)cyclopropane-1-carboxamido)benzamide] | 50 to 100 | 50 to 100 | A (80-100) | – | – | –
2 | Nc1cc(F)ccc1NC(=O)c1cc(NC(=O)[C@H]2[C@H](c3cc(Cl)cc(Cl)c3)C2(Cl)Cl)ccc1Cl (relative stereo) [F361, trans-N-(2-amino-4-fluorophenyl)-2-chloro-5-(2,2-dichloro-3-(3,5-dichlorophenyl)cyclopropane-1-carboxamido)benzamide] | 50 to 100 | 50 to 100 | A (80-100) | – | – | –
3 | O=C(Nc1ccc(F)cc1F)c1cc(NC(=O)[C@H]2[C@H](c3ccc(Br)c(F)c3)C2(Cl)Cl)ccc1Cl (relative stereo) [F364, 5-(trans)-(3-(4-Bromo-3-fluorophenyl)-2,2-dichlorocyclopropane-1-carboxamido)-2-chloro-N-(2,4-difluorophenyl)benzamide] | 50 to 100 | 50 to 100 | A (80-100) | – | – | –
4 | O=C(Nc1ccc(F)cc1F)c1cc(NC(=O)[C@H]2[C@H](c3ccc(C(F)(F)F)c(Br)c3)C2(Cl)Cl)ccc1Cl (relative stereo) [F365, 5-(trans)-(3-(3-Bromo-4-(trifluoromethyl)phenyl)-2,2-dichlorocyclopropane-1-carboxamido)-2-chloro-N-(2,4-difluorophenyl)benzamide] | 50 to 100 | 50 to 100 | A (80-100) | – | – | –
5 | O=C(Nc1ccc(F)cc1F)c1cc(NC(=O)[C@H]2[C@H](c3ccc(Br)c(C(F)(F)F)c3)C2(Cl)Cl)ccc1Cl (relative stereo) [F366, 5-(trans)-(3-(4-Bromo-3-(trifluoromethyl)phenyl)-2,2-dichlorocyclopropane-1-carboxamido)-2-chloro-N-(2,4-difluorophenyl)benzamide] | 50 to 100 | 50 to 100 | A (80-100) | – | – | –
6 | O=C(Nc1ccc(F)cc1F)c1cc(NC(=O)[C@H]2[C@H](c3ccc(C(F)(F)F)c(Cl)c3)C2(Cl)Cl)ccc1Cl (relative stereo) [F367, 2-Chloro-5-(trans)-(2,2-dichloro-3-(3-chloro-4-(trifluoromethyl)phenyl)cyclopropane-1-carboxamido)-N-(2,4-difluorophenyl)benzamide] | 50 to 100 | 50 to 100 | A (80-100) | – | – | –
7 | O=C(Nc1ccc(F)cc1F)c1cc(NC(=O)[C@H]2[C@H](c3ccc(Cl)c(C(F)(F)F)c3)C2(Cl)Cl)ccc1Cl (relative stereo) [F374, 2-Chloro-5-(trans)-(2,2-dichloro-3-(4-chloro-3-(trifluoromethyl)phenyl)cyclopropane-1-carboxamido)-N-(2,4-difluorophenyl)benzamide] | – | – | – | 50 to 100 | 50 to 100 | A (80-100)
8 | O=C(Nc1ccc(F)cc1F)c1cc(NC(=O)[C@H]2[C@H](c3ccc(F)c(Br)c3)C2(Cl)Cl)ccc1Cl (relative stereo) [F375, 5-(trans)-(3-(3-Bromo-4-fluorophenyl)-2,2-dichlorocyclopropane-1-carboxamido)-2-chloro-N-(2,4-difluorophenyl)benzamide] | – | – | – | 50 to 100 | 50 to 100 | A (80-100)
9 | O=C(Nc1ccc(F)cc1F)c1cc(NC(=O)[C@H]2[C@H](c3ccc(F)c(C(F)(F)F)c3)C2(Cl)Cl)ccc1Cl (relative stereo) [F376, 2-Chloro-5-(trans)-(2,2-dichloro-3-(4-fluoro-3-(trifluoromethyl)phenyl)cyclopropane-1-carboxamido)-N-(2,4-difluorophenyl)benzamide] | – | – | – | 50 to 100 | 50 to 100 | A (80-100)
10 | C=C(F)c1ccc([C@H]2[C@H](C(=O)Nc3ccc(Cl)c(C(=O)Nc4ccc(F)cc4)c3)C2(Cl)Cl)cc1Cl (relative stereo) [F382, 2-Chloro-5-(trans-2,2-dichloro-3-(3-chloro-4-(1-fluorovinyl)phenyl)cyclopropane-1-carboxamido)-N-(4-fluorophenyl)benzamide] | – | – | – | 50 to 100 | 50 to 100 | A (80-100)
11 | C=C(F)c1ccc([C@H]2[C@H](C(=O)Nc3ccc(Cl)c(C(=O)Nc4ccc(F)cc4F)c3)C2(Cl)Cl)cc1Cl (relative stereo) [F383, 2-Chloro-5-(trans-2,2-dichloro-3-(3-chloro-4-(1-fluorovinyl)phenyl)cyclopropane-1-carboxamido)-N-(2,4-difluorophenyl)benzamide] | – | – | – | 50 to 100 | 50 to 100 | A (80-100)
12 | C=C(F)c1cc([C@H]2[C@H](C(=O)Nc3ccc(Cl)c(C(=O)Nc4ccc(F)cc4)c3)C2(Cl)Cl)ccc1Cl (relative stereo) [F384, 2-Chloro-5-(trans-2,2-dichloro-3-(4-chloro-3-(1-fluorovinyl)phenyl)cyclopropane-1-carboxamido)-N-(4-fluorophenyl)benzamide] | – | – | – | 50 to 100 | 50 to 100 | A (80-100)
13 | C=C(F)c1cc([C@H]2[C@H](C(=O)Nc3ccc(Cl)c(C(=O)Nc4ccc(F)cc4F)c3)C2(Cl)Cl)ccc1Cl (relative stereo) [F385, 2-Chloro-5-(trans-2,2-dichloro-3-(4-chloro-3-(1-fluorovinyl)phenyl)cyclopropane-1-carboxamido)-N-(2,4-difluorophenyl)benzamide] | – | – | – | 50 to 100 | 50 to 100 | A (80-100)
14 | C=C(F)c1cc(Cl)cc([C@H]2[C@H](C(=O)Nc3ccc(Cl)c(C(=O)Nc4ccc(F)cc4F)c3)C2(Cl)Cl)c1 (relative stereo) [F386, 2-Chloro-5-(trans-2,2-dichloro-3-(3-chloro-5-(1-fluorovinyl)phenyl)cyclopropane-1-carboxamido)-N-(2,4-difluorophenyl)benzamide] | – | – | – | 50 to 100 | 50 to 100 | A (80-100)
15 | C=C(F)c1cc(Cl)cc([C@H]2[C@H](C(=O)Nc3ccc(Cl)c(C(=O)Nc4ccc(F)cc4C#N)c3)C2(Cl)Cl)c1 (relative stereo) [F387, 2-Chloro-N-(2-cyano-4-fluorophenyl)-5-(trans-2,2-dichloro-3-(3-chloro-5-(1-fluorovinyl)phenyl)cyclopropane-1-carboxamido)benzamide] | – | – | – | 50 to 100 | 50 to 100 | A (80-100)
16 | O=C(Nc1ncc(F)c(I)c1F)c1cc(NC(=O)[C@H]2[C@H](c3cc(Cl)cc(Cl)c3)C2(Cl)Cl)ccc1Cl (relative stereo) [F388, 2-Chloro-5-(trans-2,2-dichloro-3-(3,5-dichlorophenyl)cyclopropane-1-carboxamido)-N-(3,5-difluoro-4-iodopyridin-2-yl)benzamide] | – | – | – | 50 to 100 | 50 to 100 | A (80-100)
17 | C=Cc1ccc([C@H]2[C@H](C(=O)Nc3ccc(Cl)c(C(=O)Nc4ccc(F)cc4F)c3)C2(Cl)Cl)cc1F (relative stereo) [F389, 2-Chloro-5-(trans-2,2-dichloro-3-(3-fluoro-4-vinylphenyl)cyclopropane-1-carboxamido)-N-(2,4-difluorophenyl)benzamide] | – | – | – | 50 to 100 | 50 to 100 | A (80-100)
18 | C=Cc1cc([C@H]2[C@H](C(=O)Nc3ccc(Cl)c(C(=O)Nc4ccc(F)cc4F)c3)C2(Cl)Cl)ccc1F (relative stereo) [F390, 2-Chloro-5-(trans-2,2-dichloro-3-(4-fluoro-3-vinylphenyl)cyclopropane-1-carboxamido)-N-(2,4-difluorophenyl)benzamide] | – | – | – | 50 to 100 | 50 to 100 | A (80-100)
19 | C=Cc1ccc([C@H]2[C@H](C(=O)Nc3ccc(Cl)c(C(=O)Nc4ccc(F)cc4F)c3)C2(Cl)Cl)cc1C(F)(F)F (relative stereo) [F391, 2-Chloro-5-(trans-2,2-dichloro-3-(3-(trifluoromethyl)-4-vinylphenyl)cyclopropane-1-carboxamido)-N-(2,4-difluorophenyl)benzamide] | – | – | – | 50 to 100 | 50 to 100 | A (80-100)
20 | C=Cc1cc([C@H]2[C@H](C(=O)Nc3ccc(Cl)c(C(=O)Nc4ccc(F)cc4F)c3)C2(Cl)Cl)ccc1C(F)(F)F (relative stereo) [F392, 2-Chloro-5-(trans-2,2-dichloro-3-(4-(trifluoromethyl)-3-vinylphenyl)cyclopropane-1-carboxamido)-N-(2,4-difluorophenyl)benzamide] | – | – | – | 50 to 100 | 50 to 100 | A (80-100)
